Test results: PubChem BioAssay (NCI)
“And” between values parts separate entries of the source, which are not always exact repeats. Equal values may be shown once.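 How tested: cells in 96-well plates exposed to compound for 48 hours at five concentrations. The concentration for 50% growth inhibition is given as GI50. TGI marks complete inhibition of growth.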

Experiments:
Assay in all cases: NCI tumour cell line growth inhibition, 48 h
HCT-116 colon = test system: HCT-116 colon
PC-3 prostate = test system: PC-3 prostate
HCT-15 colon = test system: HCT-15 colon
SF-268 CNS = test system: SF-268 CNS
RPMI-8226 leukemia = test system: RPMI-8226 leukemia
SW-620 colon = test system: SW-620 colon
IGROV1 ovarian = test system: IGROV1 ovarian
NCI/ADR-RES ovarian = test system: NCI/ADR-RES ovarian
CAKI-1 renal = test system: CAKI-1 renal
MOLT-4 leukemia = test system: MOLT-4 leukemia

Row | Structure (SMILES) | GI50 (HCT-116 colon) | TGI (HCT-116 colon) | GI50 (PC-3 prostate) | TGI (PC-3 prostate) [µM] | GI50 (HCT-15 colon) | TGI (HCT-15 colon) [µM] | GI50 (SF-268 CNS) | TGI (SF-268 CNS) [µM] | GI50 (RPMI-8226 leukemia) | TGI (RPMI-8226 leukemia) [µM] | GI50 (SW-620 colon) | TGI (SW-620 colon) [µM] | GI50 (IGROV1 ovarian) | TGI (IGROV1 ovarian) [µM] | GI50 (NCI/ADR-RES ovarian) | TGI (NCI/ADR-RES ovarian) [µM] | GI50 (CAKI-1 renal) | TGI (CAKI-1 renal) [µM] | GI50 (MOLT-4 leukemia) | TGI (MOLT-4 leukemia) [µM]
1 | O=C(Nc1cccc(Cl)c1Cl)c1cccc(NC2=C(Cl)C(=O)N(Cc3ccccc3)C2=O)c1 | 22.1 µM | > 100 µM | 26.9 µM | 97.4 | 52.1 µM | > 100 | 27.7 µM | > 100 | 7.96 µM | 35.1 | 20.1 µM | > 100 | 11.7 µM | 59.6 | 12.6 µM | 62.5 | 33.2 µM | > 100 | 3.11 µM | 9.07
2 | O=c1[nH]c2cc(Cl)ccc2n1C1CCN(CCCC(c2ccc(F)cc2)c2ccc(F)cc2)CC1 | 1.46 µM | 2.87 µM | 1.69 µM | 4.4 | 1.45 µM | 2.76 | 1.56 µM | 2.98 | 0.711 µM | 3.6 | 1.52 µM | 2.99 | 1.98 µM | 3.87 | 1.74 µM | 3.61 | 0.488 µM | 1.97 | 2.43 µM | 7.15
3 | Cc1cc(NC(=O)c2ccc(C)c(Nc3nccc(-c4cccnc4)n3)c2)cc(-n2cnc(C)c2)c1 | 0.932 µM | 3.28 µM | 4.76 µM | 17.3 | 7.49 µM | > 27 | 5.46 µM | 13.4 | 6.45 µM | 27.6 | 4.7 µM | 26.4 | 3.93 µM | 13.5 | 7.18 µM | 23 | 2.18 µM | 7.15 | 15.6 µM | > 50
4 | COc1cc2c(cc1OC)C13CCN4CC5=CCOC6CC(=O)N2C1C6C5CC43O (configuration not stated) |  | > 100 µM |  | > 100 |  | > 100 |  | > 100 |  | > 100 |  | > 100 |  | > 100 |  | > 100 |  | > 100 |  | > 100
5 | OCCCCC#Cc1ccccc1C#Cc1cccc(O)c1 | 15.5 µM | 30 µM | 16.9 µM | 38.1 | 13.6 µM | 27 | 18.5 µM | 42.6 | 20.7 µM | 53.7 | 17.5 µM | 33.3 | 16.8 µM | 33.3 | 20 µM | 47 | 16.2 µM | 33.6 | 18 µM | 40.7
6 | COC(COC(=O)N1CCN(C=O)CC1)C1=C(N2CC2)C(=O)C(C)=C(N2CC2)C1=O (configuration not stated) |  | 1.55 µM |  | 3.24 |  | 8.1 |  | 6.45 |  | 1.52 |  | 1.59 |  | 1.38 |  | 31.9 |  | 3.6 |  | 14.1
7 | O=C(O)Cc1c(O)ccc2ccccc12 |  | > 100 µM |  | > 100 |  | > 100 |  | > 100 |  | > 100 |  | > 100 |  | > 100 |  | > 100 |  | > 100 |  | > 100
8 | CN(C)c1ccc2nc3ccc(=O)cc-3sc2c1 | 1.16 µM | 8.47 µM | 0.0726 µM | > 100 | 0.322 µM | > 86 | 5.16 µM | > 100 | 0.199 µM | 53 | 1.36 µM | > 100 | 2.48 µM | > 54.5 | 0.665 µM | > 100 | 2.24 µM | > 90.7 | 1.4 µM | 26
9 | Fc1ccc(Nc2cc(-n3nnc4ccccc43)nc3ccccc23)cc1 | 36.4 µM | > 100 µM | 20.3 µM | > 100 | > 100 µM | > 100 | > 40.1 µM | > 66.3 | 19.3 µM | > 100 | > 100 µM | > 100 | 63.9 µM | > 100 | 56.3 µM | > 100 | 41.5 µM | > 68.9 | > 100 µM | > 100
10 | COc1ccc(CNc2c3ccccc3nc3ccccc23)cc1OC | 0.944 µM | 10.9 µM | 2.58 µM | 9.97 | 2.2 µM | 7.17 | 3.21 µM | 13 | 2.2 µM | 5.59 | 1.69 µM | 10.1 | 2.3 µM | 6.55 | 1.75 µM | 6.61 | 1.87 µM | 6.33 | 2.25 µM | 25.6
11 | O=C(Nc1cccc(Cl)c1)c1cc2ccccc2cc1O | 1.68 µM and 0.828 µM | > 100 µM and 21.1 µM | 1.73 µM and 2 µM | > 100 | 2.38 µM and 2.36 µM | > 100 | 2.58 µM and 2.57 µM | > 100 | 1.52 µM and 0.535 µM |  | 3.14 µM and 3.1 µM | > 100 | 2.71 µM and 2.06 µM | > 100 | 2.62 µM and 2.06 µM |  | 2.1 µM and 1.51 µM | > 100 | 4.07 µM and 4.04 µM | > 100
12 | COc1ccc(/C=c2/sc3n(c2=O)C(c2ccc(OC)c(OC)c2)C2=C(N=3)c3cc(F)ccc3OC2)cc1 (configuration not stated) | 17.4 µM | > 100 µM | 17.6 µM | > 100 | 22.2 µM | > 83 | 15.5 µM | > 100 | > 25 µM | 99.7 | 50.5 µM | > 100 | 9.71 µM | > 26.5 | 18.7 µM | 87.4 | 10.1 µM | 41.7 | > 22.7 µM | > 100
13 | COc1ccccc1/C=C/c1cnccn1 |  | > 10 µM |  | > 10 |  | > 10 |  | > 10 |  | > 10 |  | > 10 |  | > 10 |  | > 10 |  | > 10 |  | > 10
14 | Cc1sc2nc(NCCc3c[nH]c4ccc(Cl)cc34)[nH]c(=O)c2c1C | 1.84 µM | 7.07 µM | 2.05 µM | 8.91 | 1.52 µM | 11.2 | 2.28 µM | 8.13 | 2.45 µM | 7.9 | 2.64 µM | 10.9 | 3.12 µM | 13.1 | 3.07 µM | 15.6 | 1.5 µM | 3.7 | 2.22 µM | 7.27
15 | O=C(O)c1ccccc1-c1ccccc1C(=O)Nc1ccc2c(c1)Cc1cc(F)ccc1-2 |  | 33 µM |  | 68.2 |  | 38 |  | > 100 |  | 82.8 |  | > 100 |  | > 100 |  | > 100 |  | > 100 |  | > 100
16 | COc1ccc(-n2cc(-c3ccc(Cl)c(Cl)c3)nc2SCc2cccc(C#N)c2)cc1 | 4.55 µM | > 100 µM | 34.1 µM | > 100 | 42.8 µM | > 100 | 37 µM | > 100 | > 100 µM | > 100 | 60 µM | > 100 | 4.77 µM | 28.3 | 23 µM | > 100 | 18 µM | 48.8 | 19.4 µM | > 100
17 | CC(C)c1ccccc1S(=O)c1ccccc1C(C)(C)O (configuration not stated) |  | > 100 µM |  | > 100 |  | > 100 |  | > 100 |  | > 100 |  | > 100 |  | > 100 |  | > 100 |  | > 100 |  | > 100
18 | Nc1c(C(=O)N/N=C/c2ccc(-c3ccc(Cl)cc3)o2)cnn1-c1ccnc2c(C(F)(F)F)cccc12 | > 100 µM | > 100 µM | 35 µM | > 100 | > 100 µM | > 100 | > 100 µM | > 100 | 0.496 µM | > 100 | > 100 µM | > 100 | > 100 µM | > 100 | > 100 µM | > 100 | > 100 µM | > 100 | 50.8 µM | > 100
19 | Nc1nc(Br)nc2c1ncn2C1CC(O)C(CO)O1 (configuration not stated) | 2.76 µM | > 100 µM | > 20.1 µM | > 100 | > 63.9 µM | > 100 | 99.8 µM | > 100 | > 25 µM | > 100 | 16.5 µM | > 100 |  | > 69.4 | 0.384 µM | > 100 | 2.88 µM | > 29.9 | 0.408 µM | > 100
20 | CN1CCc2c(Sc3ccc(C(=O)NO)cc3)c3ccccc3n2C1 | 1.7 µM | 3.97 µM | 1.63 µM | 4.01 | 3.62 µM | 13.4 | 1.85 µM | 4.31 | 1.36 µM | 11.1 | 1.92 µM | 5.22 | 2.84 µM | 9.06 | 6.81 µM | 51.7 | 3.95 µM | 14.5 | 2.53 µM | 7.01
21 | Cc1ccc(N(CSc2ccc(Cl)cc2)CSc2ccc(Cl)cc2)cc1 | 1.52 µM | 10.9 µM | 0.787 µM | 13.2 | 2.12 µM | 15.3 | 0.909 µM | 12.4 | 2.13 µM | 6.46 | 2.22 µM | 11.5 | 0.481 µM | 5.87 | 1.38 µM | 9.04 | 0.829 µM | 8.16 | 0.381 µM | 2.63
